Test results taken from PMC12756401, “Effect of itraconazole on pharmacokinetics of ZX-7101A tablets in healthy Chinese subjects” (Frontiers in Pharmacology, 2025).

Settings: in vivo
Method: This single center, open label, fixed sequence trial consisted of two stages. Stage 1 was single oral administration of ZX-7101A tablets to the subjects under fasting condition, while Stage 2 included coadministration of ZX-7101A tablets and itraconazole capsules. Participants took ZX-7101A tablets 40 mg orally under fasting condition in the morning on D1 of Stage 1 and D31 of Stage 2. In drug-drug interaction clinical trials, the selected dose of the precipitant drug should maximize the potential to identify drug-drug interaction in the context of safety (i.e., achieving an exposure level close to the highest clinically recommended dose). […] The PK of itraconazole is influenced by its formulation, food intake, and gastrointestinal pH ([Liu et al., 2016]; [Allen et al., 2015]). […] Therefore, in this study, itraconazole was administered orally after meals to achieve maximum clinical exposure. Therefore, from D26 to D50 of Stage 2, the participants took 200 mg itraconazole capsules once daily for 25 consecutive days within 30 min after eating a standard breakfast (coadministration with ZX-7101A at the same time in the morning of D31 under fasting condition). […]
The safety of subjects was assessed in terms of adverse events (AEs) and serious adverse events (SAEs) after administration based on the findings of physical examination, vital signs, ECG, and laboratory tests.

CCC(C)n1ncn(-c2ccc(N3CCN(c4ccc(OCC5COC(Cn6cncn6)(c6ccc(Cl)cc6Cl)O5)cc4)CC3)cc2)c1=O (centres unmarked) [Itraconazole, itraconazole]
TEAE: COVID-19 (human): 0 n (%) | drug-related TEAE: None of the subjects developed any drug-related TEAE
